IC50 data for 22 compounds are collected here from EP4043466B1, “PRC2 INHIBITORS” (Mirati Therapeutics, Inc., priority 2018, dated 2019).

Test [1] has as its target purified human, His-tagged PRC2 complex (Homo sapiens, UniProt O75530+Q15910). Kind of test: Hot Spot HMT assay: inhibition of PRC2 enzymatic activity (transfer of tritiated methyl from SAM to core histone, filter binding). It counts as biochemical. The settings on record: Inhibition of PRC2-mediated enzymatic activity; 10 nM PRC2 complex, 0.05 mg/ml core histone H3, 1 uM 3H-SAM, 1 hr at 30°C. The method, boiled down:
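Five-subunit complex (His-EZH2, Flag-EED, His-SUZ12, His-AEBP2, His-RbAp48) at 10 nM with 0.05 mg/ml core histone H3, pH 8 Tris buffer, 1% DMSO; 20 min compound pre-incubation at 30°C. Started with 1 uM [3H]-SAM, 1 hr at 30°C; tritiated H3 counted by scintillation. Compounds diluted from 1.0 µM top concentration.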

Another test has as its system Karpas 422 cells. Kind of test: Karpas 422 cell viability, CTG (Cell Titre Glo) assay. It is filed as cell-based, human. The settings on record: Inhibition of proliferation of Karpas 422 cells (EZH2 Y641N), viability measured Day 4, Day 7 or Day 11, time point of the tabulated values not stated. A digest of the protocol: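 Karpas 422 cells (EZH2 Y641N, DLBCL) plated at 1000 cells/well in RPMI with 20% FBS, exposed to compound 10µM down to 1.5nM in 3-fold steps at 37 °C. Viability by CellTiter-Glo on Days 4, 7 and 11; Day 11 plates re-fed with fresh medium and compound on Day 7. IC50 per time point.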

For test [2], the system named is PRC2-mediated histone H3 methylation. Nature of the test: Tri-Methyl Histone H3 (Lys 27) Sandwich ELISA in Pfeiffer cells: inhibition of PRC2-mediated histone H3 methylation. It counts as cell-based, human. The note with it: Inhibition of EZH2-mediated histone H3 trimethylation, Pfeiffer cells (EZH2 A677G), 96 hours incubation. The method, boiled down:
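Pfeiffer DLBCL cells (EZH2 A677G mutant) treated with 3-fold serial dilutions, 1µM to 0.15 nM final, for 96 hours at 37°C. Acid (0.4M HCl) histone extracts, neutralized, assayed by H3K27me3 sandwich ELISA with HRP/TMB read at 450 nm.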

Chain of purified human, His-tagged PRC2 complex (Q15910 whole entry): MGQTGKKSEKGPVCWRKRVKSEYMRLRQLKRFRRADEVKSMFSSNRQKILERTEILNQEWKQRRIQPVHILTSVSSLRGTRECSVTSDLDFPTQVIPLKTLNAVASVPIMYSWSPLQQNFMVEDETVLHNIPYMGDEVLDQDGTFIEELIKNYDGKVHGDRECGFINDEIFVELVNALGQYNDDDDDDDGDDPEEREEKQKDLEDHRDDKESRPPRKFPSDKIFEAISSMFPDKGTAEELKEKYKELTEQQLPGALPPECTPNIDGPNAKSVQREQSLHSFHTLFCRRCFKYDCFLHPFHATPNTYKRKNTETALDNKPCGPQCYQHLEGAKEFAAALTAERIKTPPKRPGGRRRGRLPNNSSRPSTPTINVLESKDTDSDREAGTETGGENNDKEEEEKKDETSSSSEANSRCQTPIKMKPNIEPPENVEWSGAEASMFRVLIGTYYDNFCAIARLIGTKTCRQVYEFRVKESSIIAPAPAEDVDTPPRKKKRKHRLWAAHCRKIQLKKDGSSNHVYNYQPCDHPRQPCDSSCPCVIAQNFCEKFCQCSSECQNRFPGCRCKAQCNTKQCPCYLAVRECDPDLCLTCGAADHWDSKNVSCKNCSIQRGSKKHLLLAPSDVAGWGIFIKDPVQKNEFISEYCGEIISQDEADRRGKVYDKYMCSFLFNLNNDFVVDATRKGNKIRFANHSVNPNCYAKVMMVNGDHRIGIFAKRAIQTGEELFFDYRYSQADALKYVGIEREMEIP
Chain of purified human, His-tagged PRC2 complex (O75530 whole entry): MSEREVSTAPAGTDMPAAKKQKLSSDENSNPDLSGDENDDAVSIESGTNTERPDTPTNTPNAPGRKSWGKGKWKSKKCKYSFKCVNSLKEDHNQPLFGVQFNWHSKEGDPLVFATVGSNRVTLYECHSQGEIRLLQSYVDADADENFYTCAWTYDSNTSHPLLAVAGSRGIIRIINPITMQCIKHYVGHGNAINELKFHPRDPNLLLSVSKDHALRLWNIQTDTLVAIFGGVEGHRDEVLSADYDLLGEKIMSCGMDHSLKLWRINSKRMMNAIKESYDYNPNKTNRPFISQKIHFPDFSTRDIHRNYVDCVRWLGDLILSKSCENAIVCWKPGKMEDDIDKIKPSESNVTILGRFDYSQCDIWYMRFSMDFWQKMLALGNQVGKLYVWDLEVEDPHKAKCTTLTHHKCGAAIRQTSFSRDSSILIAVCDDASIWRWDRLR
Chain of purified human, His-tagged PRC2 complex (Q15022 whole entry partner): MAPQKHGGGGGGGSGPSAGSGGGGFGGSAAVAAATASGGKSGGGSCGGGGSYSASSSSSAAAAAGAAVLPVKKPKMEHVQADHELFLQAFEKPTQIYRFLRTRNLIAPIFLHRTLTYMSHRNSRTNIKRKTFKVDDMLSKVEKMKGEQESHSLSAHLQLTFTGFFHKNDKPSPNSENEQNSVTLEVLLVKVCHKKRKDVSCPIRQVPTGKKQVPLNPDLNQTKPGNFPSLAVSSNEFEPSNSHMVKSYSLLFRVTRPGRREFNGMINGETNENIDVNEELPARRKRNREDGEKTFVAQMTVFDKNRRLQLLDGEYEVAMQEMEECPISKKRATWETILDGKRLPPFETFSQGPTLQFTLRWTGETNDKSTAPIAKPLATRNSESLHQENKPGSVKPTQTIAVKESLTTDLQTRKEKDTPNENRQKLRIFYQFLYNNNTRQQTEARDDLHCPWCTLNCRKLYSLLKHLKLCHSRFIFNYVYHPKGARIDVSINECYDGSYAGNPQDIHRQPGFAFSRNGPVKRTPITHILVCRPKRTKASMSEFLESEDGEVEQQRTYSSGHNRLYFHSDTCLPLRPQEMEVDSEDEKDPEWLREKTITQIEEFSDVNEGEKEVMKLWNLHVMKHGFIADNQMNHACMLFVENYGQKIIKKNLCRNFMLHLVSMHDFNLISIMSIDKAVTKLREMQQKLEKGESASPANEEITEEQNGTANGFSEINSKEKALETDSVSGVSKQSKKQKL
Chain of purified human, His-tagged PRC2 complex (Q6ZN18 whole entry partner): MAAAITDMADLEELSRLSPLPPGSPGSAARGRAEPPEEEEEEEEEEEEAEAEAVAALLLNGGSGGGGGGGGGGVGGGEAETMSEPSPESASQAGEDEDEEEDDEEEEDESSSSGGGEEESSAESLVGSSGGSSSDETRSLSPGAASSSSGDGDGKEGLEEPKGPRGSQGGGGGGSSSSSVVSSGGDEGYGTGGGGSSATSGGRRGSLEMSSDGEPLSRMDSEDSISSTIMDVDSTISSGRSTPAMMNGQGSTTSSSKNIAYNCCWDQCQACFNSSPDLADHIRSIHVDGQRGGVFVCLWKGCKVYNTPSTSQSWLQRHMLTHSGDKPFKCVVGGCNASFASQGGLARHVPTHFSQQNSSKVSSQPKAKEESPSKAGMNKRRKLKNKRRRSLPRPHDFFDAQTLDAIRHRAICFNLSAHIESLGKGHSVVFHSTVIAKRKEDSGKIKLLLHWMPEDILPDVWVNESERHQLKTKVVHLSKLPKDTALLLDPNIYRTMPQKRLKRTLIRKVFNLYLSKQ
Chain of purified human, His-tagged PRC2 complex (Q09028 whole entry partner): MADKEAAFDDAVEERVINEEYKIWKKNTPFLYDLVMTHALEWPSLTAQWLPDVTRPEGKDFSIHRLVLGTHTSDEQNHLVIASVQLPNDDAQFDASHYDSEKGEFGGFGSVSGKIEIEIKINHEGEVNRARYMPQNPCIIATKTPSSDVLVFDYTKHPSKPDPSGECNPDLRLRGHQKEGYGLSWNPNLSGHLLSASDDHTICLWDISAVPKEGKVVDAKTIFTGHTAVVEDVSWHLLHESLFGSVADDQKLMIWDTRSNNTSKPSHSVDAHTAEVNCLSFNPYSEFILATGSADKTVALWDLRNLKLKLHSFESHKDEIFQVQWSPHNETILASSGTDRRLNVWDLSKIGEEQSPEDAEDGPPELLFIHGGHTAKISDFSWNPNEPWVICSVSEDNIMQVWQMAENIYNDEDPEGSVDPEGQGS

Consider `N#Cc1cn2c(NCc3c(F)ccc4c3CCO4)ncc(-c3ccn(CC4CCCO4)n3)c2n1` (stereo not drawn) [Example 153, 5-(((5-fluoro-2,3-dihydrobenzofuran-4-yl)methyl)amino)-8-(1-((tetrahydrofuran-2-yl)methyl)-1H-pyrazol-3-yl)imidazo[1,2-c]pyrimidine-2-carbonitrile], for which the 50% inhibitory concentration (IC50) in test [1] was 100 to 500 nM; in the test with Karpas 422 cells (Homo sapiens), 250 to 500 nM; in test [2] (Homo sapiens), 100 to 500 nM.

Take `CN(C)C(=O)c1ccc(-c2cnc(NCc3c(F)ccc4c3CCO4)n3cc(C#N)nc23)c(Cl)c1` [Example 31, 3-chloro-4-(2-cyano-5-(((5-fluoro-2,3-dihydrobenzofuran-4-yl)methyl)amino)imidazo[1,2-c]pyrimidin-8-yl)-N,N-dimethylbenzamide]: the IC50 in test [1] was below 100 nM; in the test with Karpas 422 cells (Homo sapiens), at most 250 nM; in test [2] (Homo sapiens) it was at most 100 nM.

`CCOP(=O)(OCC)c1ccc(-c2cnc(NCc3c(F)ccc4c3CCO4)n3cc(C#N)nc23)cc1` [Example 164, diethyl (4-(2-cyano-5-(((5-fluoro-2,3-dihydrobenzofuran-4-yl)methyl)amino)imidazo[1,2-c]pyrimidin-8-yl)phenyl)phosphonate]: the IC50 in test [1] was below 100 nM; in the test with Karpas 422 cells (Homo sapiens) it was at most 250 nM; in test [2] (Homo sapiens) it was at most 100 nM.

In the case of `N#Cc1cn2c(NCc3c(F)ccc4c3CCO4)ncc(-c3cnn(CC4CCOC4)c3)c2n1` (stereo not drawn) [compound 154], the IC50 in test [1] was in the range of 100 to 500 nM; with Karpas 422 cells (Homo sapiens) it was 250 to 500 nM; in test [2] (Homo sapiens) it was 100 to 500 nM.

As to “8-(4-((dimethylamino)methyl)phenyl)-5-(((5-fluoro-2,3-dihydrobenzofuran-4-yl)methyl-d2)amino)imidazo[1,2-c]pyrimidine-2-carbonitrile [Example 165]”, the IC50 is below 100 nM in test [1], at most 250 nM in the test on Karpas 422 cells and 100 to 500 nM in test [2].

As for `N#Cc1cn2c(NCc3c(F)ccc4c3CCO4)ncc(-c3ccc(-c4nnn[nH]4)cc3)c2n1` [Example 190, 8-(4-(1H-tetrazol-5-yl)phenyl)-5-(((5-fluoro-2,3-dihydrobenzofuran-4-yl)methyl)amino)imidazo[1,2-c]pyrimidine-2-carbonitrile], the IC50 in test [1] was below 100 nM; with Karpas 422 cells (Homo sapiens) it was above 500 nM; in test [2] (Homo sapiens), above 500 nM.

Consider `CN(C)C(=O)c1cc(-c2cnc(NCc3c(F)ccc4c3CCO4)n3cc(C#N)nc23)n(C)n1` [Example 170, 5-(2-cyano-5-(((5-fluoro-2,3-dihydrobenzofuran-4-yl)methyl)amino)imidazo[1,2-c]pyrimidin-8-yl)-N,N,1-trimethyl-1H-pyrazole-3-carboxamide], for which the results for the IC50 (in test [1]; with Karpas 422 cells (Homo sapiens); in test [2] (Homo sapiens)) were below 100 nM, at most 250 nM and at most 100 nM, respectively.

On to `Cc1ncc(F)cc1-c1cnc(NCc2c(F)ccc3c2CCO3)n2cc(C#N)nc12` [Example 62, 5-(((5-fluoro-2,3-dihydrobenzofuran-4-yl)methyl)amino)-8-(5-fluoro-2-methylpyridin-3-yl)imidazo[1,2-c]pyrimidine-2-carbonitrile], for which the figures for the IC50 (in test [1]; in the test on Karpas 422 cells (Homo sapiens); in test [2] (Homo sapiens)) were below 100 nM, at most 250 nM and 100 to 500 nM, respectively.

Turning to `COC(=O)c1ccc(-c2cnc(NCc3c(F)ccc4c3CCO4)n3cc(C#N)nc23)cn1` [Example 166, methyl 5-(2-cyano-5-(((5-fluoro-2,3-dihydrobenzofuran-4-yl)methyl)amino)imidazo[1,2-c]pyrimidin-8-yl)picolinate], the IC50 in test [1] was below 100 nM; with Karpas 422 cells (Homo sapiens) it was 250 to 500 nM; in test [2] (Homo sapiens) it was above 500 nM.

In the case of `N#Cc1cn2c(NCc3c(F)ccc4c3CCO4)ncc(-c3ccc(CN4CCCC4=O)cc3)c2n1` [Example 49, 5-(((5-fluoro-2,3-dihydrobenzofuran-4-yl)methyl)amino)-8-(4-((2-oxopyrrolidin-1-yl)methyl)phenyl)imidazo[1,2-c]pyrimidine-2-carbonitrile], the IC50 is below 100 nM in test [1], at most 250 nM with Karpas 422 cells (Homo sapiens) and 100 to 500 nM in test [2] (Homo sapiens).

For `Cc1c(C#N)cccc1-c1cnc(NCc2c(F)ccc3c2CCO3)n2cc(C#N)nc12` [Example 176, 8-(3-cyano-2-methylphenyl)-5-(((5-fluoro-2,3-dihydrobenzofuran-4-yl)methyl)amino)imidazo[1,2-c]pyrimidine-2-carbonitrile], the IC50 in test [1] was below 100 nM; in the test on Karpas 422 cells (Homo sapiens), 250 to 500 nM; in test [2] (Homo sapiens) it was 100 to 500 nM.

Turning to `CN(C)C(=O)c1ccc(-c2cnc(NCc3c(F)ccc4c3CCO4)n3cc(C#N)nc23)cc1` [Example 180, 4-(2-cyano-5-(((5-fluoro-2,3-dihydrobenzofuran-4-yl)methyl)amino)imidazo[1,2-c]pyrimidin-8-yl)-N,N-dimethylbenzamide], the IC50 in test [1] was below 100 nM; with Karpas 422 cells (Homo sapiens), at most 250 nM; in test [2] (Homo sapiens), at most 100 nM.

For the compound `Cc1cc(CN(C)C)ccc1-c1cnc(NCc2c(F)ccc3c2C(O)CO3)n2cc(C#N)nc12` (stereo not drawn) [Example 207, 8-(4-((dimethylamino)methyl)-2-methylphenyl)-5-(((5-fluoro-3-hydroxy-2,3-dihydrobenzofuran-4-yl)methyl)amino)imidazo[1,2-c]pyrimidine-2-carbonitrile], the IC50 is below 100 nM in test [1], at most 250 nM with Karpas 422 cells (Homo sapiens) and at most 100 nM in test [2] (Homo sapiens).

With `N#Cc1cn2c(NCc3c(F)ccc4c3CCO4)ncc(-c3ccc(C(=O)O)cc3)c2n1` [Example 183, 4-(2-cyano-5-(((5-fluoro-2,3-dihydrobenzofuran-4-yl)methyl)amino)imidazo[1,2-c]pyrimidin-8-yl)benzoic acid], the IC50 is below 100 nM in test [1], above 500 nM in the test with Karpas 422 cells (Homo sapiens) and above 500 nM in test [2] (Homo sapiens).

Regarding `N#Cc1cn2c(NCc3c(F)ccc4c3CCO4)ncc(-c3ccccc3C#N)c2n1` [Example 187, 8-(2-cyanophenyl)-5-(((5-fluoro-2,3-dihydrobenzofuran-4-yl)methyl)amino)imidazo[1,2-c]pyrimidine-2-carbonitrile], the IC50 is below 100 nM in test [1], 250 to 500 nM in the test on Karpas 422 cells (Homo sapiens) and 100 to 500 nM in test [2] (Homo sapiens).

In the case of `Cc1cc(-c2cnc(NCc3c(F)ccc4c3CCO4)n3cc(C#N)nc23)n(C)n1` [Example 86, 8-(1,3-dimethyl-1H-pyrazol-5-yl)-5-(((5-fluoro-2,3-dihydrobenzofuran-4-yl)methyl)amino)imidazo[1,2-c]pyrimidine-2-carbonitrile], the IC50 in test [1] was below 100 nM; in the test with Karpas 422 cells (Homo sapiens), at most 250 nM; in test [2] (Homo sapiens) it was at most 100 nM.

Turning to `N#Cc1cn2c(NCc3c(F)ccc4c3CCO4)ncc(-c3ccc(S(N)(=O)=O)cc3)c2n1` [Example 47, 4-(2-cyano-5-(((5-fluoro-2,3-dihydrobenzofuran-4-yl)methyl)amino)imidazo[1,2-c]pyrimidin-8-yl)benzenesulfonamide], the IC50 was below 100 nM in test [1], at most 250 nM in the test with Karpas 422 cells (Homo sapiens) and at most 100 nM in test [2] (Homo sapiens).

As for `CN(C)CCc1ccc(-c2cnc(NCc3c(F)ccc4c3CCO4)n3cc(C#N)nc23)cc1` [Example 163, 8-(4-(2-(dimethylamino)ethyl)phenyl)-5-(((5-fluoro-2,3-dihydrobenzofuran-4-yl)methyl)amino)imidazo[1,2-c]pyrimidine-2-carbonitrile], the IC50 in test [1] was below 100 nM; in the test with Karpas 422 cells (Homo sapiens), at most 250 nM; in test [2] (Homo sapiens) it was 100 to 500 nM.

For `CNC(=O)c1ccc(-c2cnc(NCc3c(F)ccc4c3CCO4)n3cc(C#N)nc23)cc1` [Example 186, 4-(2-cyano-5-(((5-fluoro-2,3-dihydrobenzofuran-4-yl)methyl)amino)imidazo[1,2-c]pyrimidin-8-yl)-N-methylbenzamide], the values for the IC50 (in test [1]; in the test on Karpas 422 cells (Homo sapiens); in test [2] (Homo sapiens)) were below 100 nM, at most 250 nM and 100 to 500 nM, respectively.

For `COC(=O)c1cc(-c2cnc(NCc3c(F)ccc4c3CCO4)n3cc(C#N)nc23)n(C)n1` [Example 169, methyl 5-(2-cyano-5-(((5-fluoro-2,3-dihydrobenzofuran-4-yl)methyl)amino)imidazo[1,2-c]pyrimidin-8-yl)-1-methyl-1H-pyrazole-3-carboxylate], the IC50 in test [1] is below 100 nM; in the test on Karpas 422 cells (Homo sapiens), at most 250 nM; in test [2] (Homo sapiens), 100 to 500 nM.

Consider `N#Cc1cn2c(NCc3c(F)ccc4c3CCO4)ncc(-c3ccc(S(=O)(=O)C(F)(F)F)cc3)c2n1` [Example 82, 5-(((5-fluoro-2,3-dihydrobenzofuran-4-yl)methyl)amino)-8-(4-((trifluoromethyl)sulfonyl)phenyl)imidazo[1,2-c]pyrimidine-2-carbonitrile], for which the 50% inhibitory concentration (IC50) in test [1] is 100 to 500 nM; with Karpas 422 cells (Homo sapiens), 250 to 500 nM; in test [2] (Homo sapiens) it was above 500 nM.

With `CN1CCOCC1c1ccc(-c2cnc(NCc3c(F)ccc4c3CCO4)n3cc(C#N)nc23)cc1` (stereo not drawn) [Example 227, 5-(((5-fluoro-2,3-dihydrobenzofuran-4-yl)methyl)amino)-8-(4-(4-methylmorpholin-3-yl)phenyl)imidazo[1,2-c]pyrimidine-2-carbonitrile], the IC50 in test [1] was below 100 nM; in the test with Karpas 422 cells (Homo sapiens) it was at most 250 nM; in test [2] (Homo sapiens), 100 to 500 nM.
